From patent US11466036B2, “Borate of azetidine derivative” (Chia Tai Tianqing Pharmaceutical Group Co., Ltd., priority 2018, dated 2022)

Legend:
MM1.S cells = experiment: In vitro anti-proliferation experiment for MM1.S cells (CellTiter-Glo); assay type: cell-based; conditions: Homo sapiens, 48 h, 2 days incubation, 0.3 nM-2000 nM
Protocol: In Vitro Anti-Proliferation Experiment for MM1.S Cells
In this experiment, the effect of compounds on inhibiting cell proliferation was investigated by determining their effect on cell activity in vitro in the tumor cell line MM1.S.
MM1.S cells were seeded into a black 96-well cell culture plate at a density of 7,000 cells per well, and the plates were then incubated overnight in an incubator at 37° C., 5% CO2 and 100% relative humidity. Test compounds were added to the cell culture wells at a concentration (0.3 nM-2000 nM) and the plate was then put back into the incubator with vehicle control (DMSO added, no test compound) and blank control set. The plate was incubated for 2 days in an incubator at 37° C., 5% CO2 and 100% relative humidity. Samples were processed using a standard method of the Promega CellTiter-Glo luminescence cell activity detection kit (Promega-G7571) and luminescence signals were detected on a SpectraMax i3× of Molecular Devices plate reader. The inhibition rate of the test compound was calculated using the following formula: […]

MDR1 = experiment: Cell membrane permeability test on MDR1-MDCK II cells; assay type: in vitro ADME; conditions: dog; for efflux ratio at 150 min, 2 μM: MDCK-MDR1, pH 7.4, Papp B to A/Papp A to B; for Papp A→B at 150 min, 2 μM / Papp B→A at 150 min, 2 μM: MDCK-MDR1, pH=7.4
Protocol: Experimental Example 3: Cell Membrane Permeability Test for Compounds
Test compounds were evaluated for cell membrane permeability on MDR1-MDCK II cells.
Test compounds (10 mM DMSO solution of compound) were each diluted with transfer buffer (HBSS with 10 mM Hepes, pH=7.4) and formulated into samples at a final concentration of 2 μM, and then bidirectional (A-B and B-A) administration was performed. After administration, the cell plate was incubated for 150 minutes in an incubator at 37° C., 5% CO2 and saturated humidity. After the 150 minutes of incubation, samples were collected and the concentrations of test compounds in the transfer samples were semi-quantitatively determined using LC-MS/MS method.

[1] = Liver microsomal stability test, rat; assay type: in vitro ADME, SD rats; conditions: SD; rat (R) liver microsomes; read-out: Liver microsomal stability (T1/2, min)
Protocol: (§1) Experimental Example 2: Liver Microsomal Stability Test for Compounds
(§2) Test compounds were each co-incubated with liver microsomes from CD-1 mice, SD rats, and humans to evaluate the stability of the test compounds.
(§3) Preparation of test compound solution samples: a 10 mM DMSO solution of the example compound (5 μL) was added to a mixed solvent of DMSO (45 μL), methanol and water (450 μL, volume ratio of methanol and water was 1:1) to prepare a 100 μM test compound solution; 50 μL of the 100 μM test compound solution was added to 450 μL of 100 mM potassium phosphate buffer to give a 10 μM test compound solution.
(§4) The 10 μM test compound solution was preincubated with microsomes of three species (human, rat and mouse, respectively) for 10 minutes, and then reduced nicotinamide adenine dinucleotide phosphate (NADPH) regeneration system working solution was added to the incubation plate according to each time point to initiate the reaction, and finally at 0, 5, 10, 20, 30 and 60 minutes, stop solution (100% ACN) was added to the reaction plate to stop the reaction. The test compounds were determined using LC-MS/MS method.

[2] = Liver microsomal stability test, mouse; assay type: in vitro ADME, CD-1 mice; conditions: CD-1; mouse (M) liver microsomes; read-out: Liver microsomal stability (T1/2, min)
Protocol: as §1, §2, §3, §4

[3] = Liver microsomal stability test, human; assay type: in vitro ADME; conditions: human (H) liver microsomes; read-out: Liver microsomal stability (T1/2, min)
Protocol: as §1, §2, §3, §4

[4] = Stability experiment (solid sample in stability boxes, content by HPLC); assay type: physicochemical
Protocol: Experimental Example 4: Stability Experiment
About 50 mg of a sample was placed in a clean disposable petri dish and spread into a thin layer. The petri dish was covered with aluminum foil paper which was pricked with several small holes. The sample, in duplicate, was placed in stability boxes of 25° C.±2° C./60% RH±5% RH and 40° C.±2° C./75% RH±5% RH, respectively, and sampled at the planned time points, and the content of the compound was determined using the HPLC method, and the results are shown in Table 9.

| SMILES | IC50 (MM1.S cells) | efflux ratio at 150 min, 2 μM (MDR1) | Papp A→B at 150 min, 2 μM (MDR1) | Papp B→A at 150 min, 2 μM (MDR1) | half-life [1] | half-life [2] | half-life [3] | other results |
| --- | --- | --- | --- | --- | --- | --- | --- | --- |
| CC(C)C[C@H](NC(=O)CNC(=O)[C@@H]1CCN1c1ccc(F)cc1)B(O)O [Compound 1-9] | 5.8 nM |  |  |  | 42.1 min | 43.5 min | 74.3 min |  |
| CC(C)C[C@H](NC(=O)CNC(=O)[C@@H]1CCN1c1ncc(F)cc1F)B(O)O [Compound 2-8] | 24 nM |  |  |  |  |  |  |  |

The next lines start with results.

| IC50 (MM1.S cells) | efflux ratio at 150 min, 2 μM (MDR1) | Papp A→B at 150 min, 2 μM (MDR1) | Papp B→A at 150 min, 2 μM (MDR1) | half-life [1] | half-life [2] | half-life [3] | SMILES | other results |
| --- | --- | --- | --- | --- | --- | --- | --- | --- |
| 90.6 nM |  |  |  |  |  |  | CC(C)C[C@H](NC(=O)CNC(=O)[C@@H]1CCN1c1ccc(C#N)cc1F)B(O)O (single isomer, unassigned) [Compound 3-7] |  |
| 1 nM | 19.3 | 0.38 ×10⁻⁶ cm/s | 7.32 ×10⁻⁶ cm/s | 43.1 min | 67.4 min | 67.4 min | CC(C)C[C@H](NC(=O)CNC(=O)[C@@H]1CCN1c1ccc(F)cc1F)B(O)O (single isomer, unassigned) [Compound 4-9] |  |
| 24.2 nM | 9.33 | 0.24 ×10⁻⁶ cm/s | 2.24 ×10⁻⁶ cm/s | 26.5 min | 37.7 min | 75 min | CC(C)C[C@H](NC(=O)CNC(=O)[C@@H]1CCN1c1nc(C(F)(F)F)cs1)B(O)O [Compound 2-9] |  |
| 13 nM |  |  |  |  |  |  | CC(C)C[C@H](NC(=O)CNC(=O)[C@@H]1CCN1c1ccc(F)cc1F)B1OC(=O)[C@H](CC(=O)O)O1 [Compound I-1] | content of the compound ([4]; 25° C./60% RH, Day 0): 98.6%; content of the compound ([4]; 25° C./60% RH, Day 7): 97.8%; content of the compound ([4]; 25° C./60% RH, Day 14): 100%; content of the compound ([4]; 25° C./60% RH, Day 21): 100%; content of the compound ([4]; 25° C./60% RH, Day 28): 100%; content of the compound ([4]; 40° C./75% RH, Day 0): 98.6%; content of the compound ([4]; 40° C./75% RH, Day 7): 99.1%; content of the compound ([4]; 40° C./75% RH, Day 14): 98.5%; content of the compound ([4]; 40° C./75% RH, Day 21): 100%; content of the compound ([4]; 40° C./75% RH, Day 28): 100% |
